Read-outs that look alike come from different tables or passages of the source.
Columns and labels:
[1] = Inhibition of ovalbumin (Ova) oxidative degradation by ClO radical; conditions: for ClO radical inhibitory concentration: concentration that completely inhibits oxidative degradation of protein by 10 mM ClO•; for Inhibitory action toward proteolysis by ClO radical: Ova; for Inhibition effect on degradation of protein due to ClO radical: 30 min, pH 7.2; for Rank of ClO•-scavenging strength (in words): complete inhibition of protein degradation by 10 mM ClO•, comparison of Table 3
Description: (§1) ClO•, OH•, and NO3• were prepared as three typical active oxygen species produced in the body. Clo• was prepared using a method wherein sodium hypochlorite was diluted to a pH 6.5 with distilled water, OH• by a partially modified Fenton method (B. Halliwell, et al., Analytical Biochmistry, No. 165, p. 215-219, 1987), and NO3• by a modified quenching flow reactor method (R. Radi, et al., Journal of Biological Chemistry, Vol. 266, p. 4244-4250, 1991). Next, Ova was dissolved in pH 7.2 buffered physiological saline to a concentration of 2.5 mg/mL, each concentration of antioxidant was added at a volume ratio of 10:1 with respect to the protein solution, the solution was let stand for 30 min at room temperature, each concentration of active oxygen was added in the same manner at a volume ratio of 10:1 with respect to protein solution, and ClO• oxidation was performed for 30 min at 37° C., OH• oxidation for 60 min at 37° C., and NO3 oxidation for 120 min at 37° C. After the reaction, sodium dodecylsulfate-polyacrylamide gel electrophoresis (SDS-PAGE) was performed on each sample, the gel was stained with Coomassie blue R250, and the Ova degradation inhibition rate was calculated from the densitometer reading. An accurate degradation inhibition rate was calculated using the following formula from the proteolytic inhibition activity obtained by performing GPC-HPLC using a TSKG-3,000SW column directly on the reacted samples.
(§2) Using the same test methods as described in (1) above, a comparison of inhibitory activity by various natural extracts on the Ova degradation by active oxygen was performed. The concentrations of the natural extracts tested were 5 mg/mL as solids.
The strength of antioxidant activity between peptides with antioxidant activity and sulfur-containing amino acids was compared with respect to ClO•, and between various antioxidants with antioxidant activity with respect to OH•.

[2] = Inhibition of ovalbumin (Ova) oxidative degradation by ONOO radical; conditions: for Inhibitory action toward proteolysis by ONOO radical: Ova; for Inhibition effect on degradation of protein due to ONOO radical: 120 min, pH 7.2; for Concentration that completely inhibited the oxidative effect of ONOO•: 5 mM ONOO•
Description: as §1, §2

[3] = Inhibition of ovalbumin (Ova) oxidative degradation by OH radical; conditions: for Inhibitory action toward proteolysis by OH radical: Ova; for OH radical inhibitory concentration: concentration that completely inhibits the proteolytic action of 10 mM OH•; for Inhibition effect on degradation of protein due to OH radical: 60 min, pH 7.2
Description: as §1, §2

cholesterol in the blood = conditions: known from the literature (Herrera-Arellano 2004; Kim 2003); cited from earlier work
human red blood cells = experiment: Microchannel (MC) transit capability of human red blood cells damaged by active oxygen; format: cell-based
Description: A microchannel (hereinafter, MC), which is a capillary model, is a device that measures hemorheology, i.e., the capability of blood to circulate through capillaries. Factors affecting hemorheology include meals, oxidative stress, etc. In the present invention the effects of the three active oxygen species produced in the body on the MC transit capability of human red blood cells were tested, and the effectiveness of various antioxidants in preventing the harmful effects of active oxygen were compared.
Next, the effectiveness of various antioxidants in preventing the MC transit damage due to various active oxygen species was measured using red blood cells. […] (2.5 mM) as the ONOO•-scavenger were used. These three types were mixed together and used as the antioxidant mixture.
A microchannel (MC), which is a capillary model, is a device that measures hemorheology, i.e., the capability of blood to circulate through capillaries. Factors effecting hemorheology include meals, oxidative stress, etc. In the present Example, the effects of the three active oxygen species produced in the body on the MC transit capability of human red blood cells were tested.
For the test method, blood from healthy human volunteers was subjected a Ficoll-Pague centrifuge (made by Amersham-Pharmacia Biotech) to separate a red blood cell fraction, and the MC transit time of the red blood (final concentration of hematocrit is 10%) treated by various active oxygen species was measured by an MC FAN KH-3A (channel width 7 μm, MC Laboratory, Inc.).

[4] = test system: glycated hemoglobin (HbAlc) in the blood; experiment: Lowering of glycated hemoglobin in the blood of diabetic model GK rats; format: in vivo; conditions: 100 mg/kg orally for 28 days, FIG. 5
Description: Using the diabetes model animal GK rats (Y. Ihara, et al. FEBS Letters, Vol. 473, p. 24-26, 2000), the effectiveness of single doses of various antioxidants and combined doses of antioxidants in lowering the level of glycated hemoglobin (HbAlc) in the blood was compared.
As the ClO•-scavenger 200 mg/kg of anserine-carnosine mixture derived from chicken extract, as the OH•-scavenger wheat grass extract (total content of caffeic acid analogues 10 mg/kg), as the ONOO•-scavenger 100 mg/kg of V.C., and a composition containing all three antioxidants were administered orally to the GK rats for 28 days, and the blood HbAlc levels were measured at the end of dosing.

[5] = antioxidant 20 μM, 10 mM ClO radical
[6] = antioxidant 20 μM, 10 mM OH radical
[7] = antioxidant 50 μM, 10 mM ClO radical
[8] = antioxidant 50 μM, 10 mM OH radical
[9] = antioxidant 5 mM, 10 mM ClO radical
[10] = antioxidant 5 mM, 10 mM OH radical

Cn1cncc1C[C@H](NC(=O)CCN)C(=O)O [Anserine, anserine]
ClO radical inhibitory concentration [1]: 5.0 mM

CC1=C(/C=C/C(C)=C/C=C/C(C)=C/C=C/C=C(C)/C=C/C=C(C)/C=C/C2=C(C)C(=O)[C@@H](O)CC2(C)C)C(C)(C)C[C@H](O)C1=O [Astaxanthin, astaxanthin]
Inhibitory action toward proteolysis by ONOO radical ([2]; antioxidant 20 μM): 28%
Inhibitory action toward proteolysis by ClO radical [1, 5]: 24%
Inhibitory action toward proteolysis by OH radical [3, 6]: 100%
OH radical inhibitory concentration [3]: 0.5 µM

CC1=C(/C=C/C(C)=C/C=C/C(C)=C/C=C/C=C(C)/C=C/C=C(C)/C=C/C2=C(C)CCCC2(C)C)C(C)(C)CCC1 [B-carotene, β-carotene]
Concentration showing degradation inhibitory activity against ONOO• [2]: 10 µM
Inhibitory action toward proteolysis by ONOO radical ([2]; antioxidant 20 μM): 74%
Inhibitory action toward proteolysis by ClO radical [1, 5]: 38%
Inhibitory action toward proteolysis by OH radical [3, 6]: 100%
OH radical inhibitory concentration [3]: 0.5 µM

O=C(O)/C=C/c1ccc(O)c(O)c1 [Caffeic acid, caffeic acid]
OH radical inhibitory concentration [3]: 4.0 µM
OH radical inhibitory concentration ([3]; listed as caffeic acid): 2.5 µM

NCCC(=O)N[C@@H](Cc1cnc[nH]1)C(=O)O [Carnosine, carnosine]
ClO radical inhibitory concentration [1]: 5.0 mM

Oc1cc(O)c2c(c1)OC(c1ccc(O)c(O)c1)C(O)C2 (centres unmarked) [Catechins, catechins]
Concentration showing degradation inhibitory activity against ONOO• [2]: 500 µM
Inhibitory action toward proteolysis by ONOO radical ([2]; antioxidant 50 μM): 58%
Inhibitory action toward proteolysis by ClO radical [1, 7]: 0%
Inhibitory action toward proteolysis by OH radical [3, 8]: 100%
OH radical inhibitory concentration [3]: 2.5 µM

O=C(/C=C/c1ccc(O)c(O)c1)O[C@@H]1C[C@](O)(C(=O)O)C[C@@H](O)[C@H]1O [Chlorogenic acid, chlorogenic acid]
Effect of lowering the level of cholesterol in the blood (in words) (cholesterol in the blood): have an effect of lowering the level of cholesterol in the blood

COC1=C(OC)C(=O)C(C/C=C(\C)CC/C=C(\C)CC/C=C(\C)CC/C=C(\C)CC/C=C(\C)CC/C=C(\C)CC/C=C(\C)CC/C=C(\C)CC/C=C(\C)CCC=C(C)C)=C(C)C1=O [CoQ10]
Inhibition effect on degradation of protein due to ONOO radical ([2]; 50 μM): 0
Inhibition effect on degradation of protein due to ClO radical ([1]; 50 μM): 0
Inhibition effect on degradation of protein due to OH radical ([3]; 50 μM): 100
Inhibition of red blood cell MC transit damage due to OH• (human red blood cells; hematocrit 10%, 10 mM OH radical, FIG. 10): inhibited the damage

N[C@@H](CS(=O)(=O)O)C(=O)O [Cysteic acid, cysteic acid]
ClO radical inhibitory concentration [1]: 7.5 mM

N[C@@H](CS)C(=O)O [Cysteine, L-cysteine]
Inhibition effect on degradation of protein due to ONOO radical ([2]; 5 mM): 22
Inhibition effect on degradation of protein due to ClO radical ([1]; 5 mM): 100
Rank of ClO•-scavenging strength (in words) [1]: most potent
ClO radical inhibitory concentration [1]: 2.5 mM
Inhibition effect on degradation of protein due to OH radical ([3]; 5 mM): 15

O=C(O[C@@H]1Cc2c(O)cc(O)cc2O[C@@H]1c1cc(O)c(O)c(O)c1)c1cc(O)c(O)c(O)c1 [Epigallocatechin gallate, epigallocatechin gallate]
Concentration showing degradation inhibitory activity against ONOO• ([2]; FIG. 1, said to exceed physiologically relevant concentrations): 500 µM
Inhibition of Ova oxidative degradation by ClO• (in words) ([1]; FIG. 1, 10 mM ClO radical, β-carotene 20 μM, EGCG 500 μM): faint inhibitory activity
Concentration at which oxidative degradation of Ova by OH• was completely inhibited ([3]; FIG. 1, 10 mM OH radical, tested concentration): 5 µM
OH radical inhibitory concentration [3]: 2.5 µM
Inhibition of red blood cell MC transit damage due to OH• (human red blood cells; antioxidant 50 μM, FIG. 4): completely inhibited

COc1cc(/C=C/C(=O)O)ccc1O [Ferulic acid, ferulic acid]
Inhibitory action toward proteolysis by ONOO radical ([2]; antioxidant 50 μM): 34%
Inhibitory action toward proteolysis by ClO radical [1, 7]: 7%
Effect of lowering the level of cholesterol in the blood (in words) (cholesterol in the blood): have an effect of lowering the level of cholesterol in the blood
Inhibitory action toward proteolysis by OH radical [3, 8]: 100%
OH radical inhibitory concentration [3]: 2.5 µM

CSCC[C@H](N)C(=O)O [Methionine, methionine]
Inhibition effect on degradation of protein due to ONOO radical ([2]; 5 mM): 45
Inhibition effect on degradation of protein due to ClO radical ([1]; 5 mM): 100
ClO radical inhibitory concentration [1]: 5.0 mM
Inhibition effect on degradation of protein due to OH radical ([3]; 5 mM): 62

CC(=O)N[C@@H](CS)C(=O)O [N-acetyl-L-cysteine]
Inhibition effect on degradation of protein due to ONOO radical ([2]; 5 mM): 20
Inhibition effect on degradation of protein due to ClO radical ([1]; 5 mM): 100
Rank of ClO•-scavenging strength (in words) [1]: most potent
ClO radical inhibitory concentration [1]: 2.5 mM
Inhibition effect on degradation of protein due to OH radical ([3]; 5 mM): 20

O=c1c(O)c(-c2ccc(O)c(O)c2)oc2cc(O)cc(O)c12 [Quercetin, quercetin]
Inhibitory action toward proteolysis by ONOO radical ([2]; antioxidant 50 μM): 16%
Inhibitory action toward proteolysis by ClO radical [1, 7]: 5%
Inhibitory action toward proteolysis by OH radical [3, 8]: 100%
OH radical inhibitory concentration [3]: 2.5 µM

N[C@@H](CCC(=O)N[C@@H](CS)C(=O)NCC(=O)O)C(=O)O [Reduced glutathione, reduced glutathione]
Rank of ClO•-scavenging strength (in words) [1]: most potent
ClO radical inhibitory concentration [1]: 2.5 mM

O=C1O[C@H]([C@@H](O)CO)C(O)=C1O [Vitamin C, L-ascorbic acid]
Concentration that completely inhibited the oxidative effect of ONOO• [2]: 1 mM
Inhibitory action toward proteolysis by ONOO radical ([2]; antioxidant 5 mM): 100%
Inhibitory action toward proteolysis by ClO radical [1, 9]: 67%
Decrease of blood HbAlc level [4]: 0.3%
Inhibitory action toward proteolysis by OH radical [3, 10]: 0%
Inhibition of red blood cell MC transit damage due to ONOO• (human red blood cells; hematocrit 10%, 5 mM ONOO radical, FIG. 10): inhibited the damage

Cc1c(C)c2c(c(C)c1O)CC[C@@](C)(CCC[C@H](C)CCC[C@H](C)CCCC(C)C)O2 [Vitamin E, α-tocopherol]
Inhibitory action toward proteolysis by ONOO radical ([2]; antioxidant 5 mM): 22%
Inhibitory action toward proteolysis by ClO radical [1, 9]: 0%
Inhibitory action toward proteolysis by OH radical [3, 10]: 98%
Rank of OH•-scavenging strength (in words) ([3]; complete inhibition of proteolysis by 10 mM OH•, comparison of Table 4): weakest antioxidant activity
OH radical inhibitory concentration [3]: 2500 µM
Antioxidant activity against OH• (inhibition of proteolysis) relative to astaxanthin ([3]; fraction of the activity of the carotenoid astaxanthin): approximately 1/5000

O=C1O[C@H]([C@@H](O)CO)C([O-])=C1O.[Na+] [sodium V.C.]
Concentration that completely inhibited the oxidative effect of ONOO• [2]: 1 mM

alliin
ClO radical inhibitory concentration [1]: 7.5 mM
